Assay results published in ChEMBL document CHEMBL5036347, “Design of the naphthyl-diarylpyrimidines as potent non-nucleoside reverse transcriptase inhibitors (NNRTIs) via structure-based extension into the entrance channel” (Eur J Med Chem, 2021).

Test system: not listed separately
Assay: Resistance fold, ratio of EC50 for HIV1 harboring reverse transcriptase Y181C mutant […] to EC50 for wild type HIV1 […]
Assay type: functional
Conditions: not given

Q: For `COc1cc2cc(C#N)ccc2c(OC)c1Oc1cc(NC2CCCCC2)nc(Nc2ccc(C#N)cc2)n1`, which “Ratio EC50” value is on record?
A: 12

Q: With `COc1cc2cc(C#N)ccc2c(OC)c1Oc1cc(NC2CC2)nc(Nc2ccc(C#N)cc2)n1` as the molecule, how does the “Ratio EC50” value read?
A: 9

Test system: not listed separately
Assay: Resistance fold, ratio of EC50 for HIV1 harboring reverse transcriptase E138K mutant […] to EC50 for wild type HIV1 […]
Assay type: functional
Conditions: not given

Q: For `COc1cc2cc(C#N)ccc2c(OC)c1Oc1cc(NC2CCCCC2)nc(Nc2ccc(C#N)cc2)n1`, which “Ratio EC50” value is on record?
A: 2

Q: With `COc1cc2cc(C#N)ccc2c(OC)c1Oc1cc(NC2CC2)nc(Nc2ccc(C#N)cc2)n1` as the molecule, how does the “Ratio EC50” value read?
A: 3

Test system: not listed separately
Assay: Resistance fold, ratio of EC50 for HIV1 harboring reverse transcriptase L100I mutant […] to EC50 for wild type HIV1 […]
Assay type: functional
Conditions: not given

Q: Which “Ratio EC50” value does the source give for `COc1cc2cc(C#N)ccc2c(OC)c1Oc1cc(NC2CCCCC2)nc(Nc2ccc(C#N)cc2)n1` here?
A: 379

Q: With `COc1cc2cc(C#N)ccc2c(OC)c1Oc1cc(NC2CC2)nc(Nc2ccc(C#N)cc2)n1` as the molecule, how does the “Ratio EC50” value read?
A: 29

Test system: Human immunodeficiency virus 1
Assay: Antiviral activity against HIV1 harboring reverse transcriptase Y181C mutant infected in human MT4 cells assessed as protection against virus-induced cytopathic effect incubated for 5 days by MTT assay
Assay type: functional, organism-based
Conditions: Human immunodeficiency virus 1, MT4, 120 h

Q: With `COc1cc2cc(C#N)ccc2c(OC)c1Oc1cc(NC2CCCCC2)nc(Nc2ccc(C#N)cc2)n1` as the molecule, how does the EC50 read?
A: 1.27 µM

Q: Which EC50 does the source give for `COc1cc2cc(C#N)ccc2c(OC)c1Oc1cc(NC2CC2)nc(Nc2ccc(C#N)cc2)n1` here?
A: 0.19 µM

Test system: Human immunodeficiency virus 2
Assay: Anti-HIV activity against HIV2 ROD infected in human MT4 cells assessed as reduction in virus-induced cytopathic effect incubated for 5 days by MTT assay
Assay type: functional, organism-based
Conditions: Human immunodeficiency virus 2, ROD, MT4, 120 h

Q: With `COc1cc2cc(C#N)ccc2c(OC)c1Oc1cc(NC2CCCCC2)nc(Nc2ccc(C#N)cc2)n1` as the molecule, how does the IC50 read?
A: > 1000 µM

Q: Which EC50 does the source give for `COc1cc2cc(C#N)ccc2c(OC)c1Oc1cc(NC2CC2)nc(Nc2ccc(C#N)cc2)n1` here?
A: > 1000 µM

Test system: not listed separately
Assay: Resistance fold, ratio of EC50 for HIV1 harboring reverse transcriptase K103N/Y181C double mutant […] to EC50 for wild type HIV1 […]
Assay type: functional
Conditions: not given

Q: Which “Ratio EC50” value does the source give for `COc1cc2cc(C#N)ccc2c(OC)c1Oc1cc(NC2CCCCC2)nc(Nc2ccc(C#N)cc2)n1` here?
A: 933

Q: For `COc1cc2cc(C#N)ccc2c(OC)c1Oc1cc(NC2CC2)nc(Nc2ccc(C#N)cc2)n1`, which “Ratio EC50” value is on record?
A: 63

Target: Human immunodeficiency virus type 1 reverse transcriptase (Human immunodeficiency virus 1, UniProt Q72547)
Assay: Inhibition of wild type HIV1 reverse transcriptase using oligo(dT)16 as primer measured after 40 mins by picogreen-dye based spectrofluorimetric analysis
Conditions: not given

Q: Which IC50 does the source give for `COc1cc2cc(C#N)ccc2c(OC)c1Oc1cc(NC2CCCCC2)nc(Nc2ccc(C#N)cc2)n1` here?
A: 0.44 µM

Q: For `COc1cc2cc(C#N)ccc2c(OC)c1Oc1cc(NC2CC2)nc(Nc2ccc(C#N)cc2)n1`, which IC50 is on record?
A: 0.08 µM

Test system: Human immunodeficiency virus 1
Assay: Antiviral activity against HIV1 harboring reverse transcriptase F227L/V106A mutant infected in human MT4 cells assessed as protection against virus-induced cytopathic effect incubated for 5 days by MTT assay
Assay type: functional, organism-based
Conditions: Human immunodeficiency virus 1, MT4, 120 h

Q: With `COc1cc2cc(C#N)ccc2c(OC)c1Oc1cc(NC2CCCCC2)nc(Nc2ccc(C#N)cc2)n1` as the molecule, how does the EC50 read?
A: > 1000 µM

Q: With `COc1cc2cc(C#N)ccc2c(OC)c1Oc1cc(NC2CC2)nc(Nc2ccc(C#N)cc2)n1` as the molecule, how does the EC50 read?
A: 9.59 µM

Test system: not listed separately
Assay: Resistance fold, ratio of EC50 for HIV1 harboring reverse transcriptase K103N mutant […] to EC50 for wild type HIV1 […]
Assay type: functional
Conditions: not given

Q: For `COc1cc2cc(C#N)ccc2c(OC)c1Oc1cc(NC2CCCCC2)nc(Nc2ccc(C#N)cc2)n1`, which “Ratio EC50” value is on record?
A: 1

Q: With `COc1cc2cc(C#N)ccc2c(OC)c1Oc1cc(NC2CC2)nc(Nc2ccc(C#N)cc2)n1` as the molecule, how does the “Ratio EC50” value read?
A: 2

Test system: not listed separately
Assay: Selectivity index, ratio of CC50 for cytotoxicity against human MT4 cells to EC50 of Anti-HIV activity against HIV-1 IIIB infected in human MT4
Assay type: toxicity, cell-based
Conditions: read-out: Selectivity Index

Q: Which selectivity ratio does the source give for `COc1cc2cc(C#N)ccc2c(OC)c1Oc1cc(NC2CCCCC2)nc(Nc2ccc(C#N)cc2)n1` here?
A: > 2290

Q: For `COc1cc2cc(C#N)ccc2c(OC)c1Oc1cc(NC2CC2)nc(Nc2ccc(C#N)cc2)n1`, which selectivity ratio is on record?
A: > 12700

Test system: Human immunodeficiency virus 1
Assay: Antiviral activity against HIV1 harboring reverse transcriptase K103N mutant infected in human MT4 cells assessed as protection against virus-induced cytopathic effect incubated for 5 days by MTT assay
Assay type: functional, organism-based
Conditions: Human immunodeficiency virus 1, MT4, 120 h

Q: Which EC50 does the source give for `COc1cc2cc(C#N)ccc2c(OC)c1Oc1cc(NC2CCCCC2)nc(Nc2ccc(C#N)cc2)n1` here?
A: 0.13 µM

Q: With `COc1cc2cc(C#N)ccc2c(OC)c1Oc1cc(NC2CC2)nc(Nc2ccc(C#N)cc2)n1` as the molecule, how does the EC50 read?
A: 0.038 µM

Test system: not listed separately
Assay: Cytotoxicity against human MT4 cells assessed as reduction in cell viability incubated for 5 days by MTT assay
Assay type: cell-based
Conditions: human, MT4 cells; time 5 day

Q: For `COc1cc2cc(C#N)ccc2c(OC)c1Oc1cc(NC2CCCCC2)nc(Nc2ccc(C#N)cc2)n1`, which CC50 at 120 h is on record?
A: > 125 µM

Q: Which CC50 at 120 h does the source give for `COc1cc2cc(C#N)ccc2c(OC)c1Oc1cc(NC2CC2)nc(Nc2ccc(C#N)cc2)n1` here?
A: > 125 µM

Test system: not listed separately
Assay: Resistance fold, ratio of EC50 for HIV1 harboring reverse transcriptase Y188L mutant […] to EC50 for wild type HIV1 […]
Assay type: functional
Conditions: not given

Q: Which “Ratio EC50” value does the source give for `COc1cc2cc(C#N)ccc2c(OC)c1Oc1cc(NC2CCCCC2)nc(Nc2ccc(C#N)cc2)n1` here?
A: 479

Q: Which “Ratio EC50” value does the source give for `COc1cc2cc(C#N)ccc2c(OC)c1Oc1cc(NC2CC2)nc(Nc2ccc(C#N)cc2)n1` here?
A: 45

Test system: Human immunodeficiency virus 1
Assay: Antiviral activity against HIV1 harboring reverse transcriptase Y188L mutant infected in human MT4 cells assessed as protection against virus-induced cytopathic effect incubated for 5 days by MTT assay
Assay type: functional, organism-based
Conditions: Human immunodeficiency virus 1, MT4, 120 h

Q: With `COc1cc2cc(C#N)ccc2c(OC)c1Oc1cc(NC2CCCCC2)nc(Nc2ccc(C#N)cc2)n1` as the molecule, how does the EC50 read?
A: 50.3 µM

Q: Which IC50 does the source give for `COc1cc2cc(C#N)ccc2c(OC)c1Oc1cc(NC2CC2)nc(Nc2ccc(C#N)cc2)n1` here?
A: 0.91 µM

Test system: Human immunodeficiency virus 1
Assay: Anti-HIV activity against HIV-1 IIIB infected in human MT4 cells assessed as reduction in virus-induced cytopathic effect incubated for 5 days by MTT assay
Assay type: functional, organism-based
Conditions: Human immunodeficiency virus 1, IIIB, MT4, 120 h

Q: Which EC50 does the source give for `COc1cc2cc(C#N)ccc2c(OC)c1Oc1cc(NC2CCCCC2)nc(Nc2ccc(C#N)cc2)n1` here?
A: 0.1 µM

Q: Which EC50 does the source give for `COc1cc2cc(C#N)ccc2c(OC)c1Oc1cc(NC2CC2)nc(Nc2ccc(C#N)cc2)n1` here?
A: 0.02 µM

Test system: Human immunodeficiency virus 1
Assay: Antiviral activity against HIV1 harboring reverse transcriptase L100I mutant infected in human MT4 cells assessed as protection against virus-induced cytopathic effect incubated for 5 days by MTT assay
Assay type: functional, organism-based
Conditions: Human immunodeficiency virus 1, MT4, 120 h

Q: For `COc1cc2cc(C#N)ccc2c(OC)c1Oc1cc(NC2CCCCC2)nc(Nc2ccc(C#N)cc2)n1`, which EC50 is on record?
A: 39.8 µM

Q: For `COc1cc2cc(C#N)ccc2c(OC)c1Oc1cc(NC2CC2)nc(Nc2ccc(C#N)cc2)n1`, which EC50 is on record?
A: 0.59 µM

Test system: Human immunodeficiency virus 1
Assay: Antiviral activity against HIV1 harboring reverse transcriptase K103N/Y181C double mutant infected in human MT4 cells assessed as protection against virus-induced cytopathic effect incubated for 5 days by MTT assay
Assay type: functional, organism-based
Conditions: Human immunodeficiency virus 1, MT4, 120 h

Q: With `COc1cc2cc(C#N)ccc2c(OC)c1Oc1cc(NC2CCCCC2)nc(Nc2ccc(C#N)cc2)n1` as the molecule, how does the EC50 read?
A: 97.9 µM

Q: For `COc1cc2cc(C#N)ccc2c(OC)c1Oc1cc(NC2CC2)nc(Nc2ccc(C#N)cc2)n1`, which EC50 is on record?
A: 1.28 µM

Test system: not listed separately
Assay: Resistance fold, ratio of EC50 for HIV1 harboring reverse transcriptase F227L/V106A double mutant […] to EC50 for wild type HIV1 […]
Assay type: functional
Conditions: not given

Q: With `COc1cc2cc(C#N)ccc2c(OC)c1Oc1cc(NC2CCCCC2)nc(Nc2ccc(C#N)cc2)n1` as the molecule, how does the “Ratio EC50” value read?
A: >9533

Q: With `COc1cc2cc(C#N)ccc2c(OC)c1Oc1cc(NC2CC2)nc(Nc2ccc(C#N)cc2)n1` as the molecule, how does the “Ratio EC50” value read?
A: 468

Test system: Human immunodeficiency virus 1
Assay: Antiviral activity against HIV1 harboring reverse transcriptase E138K mutant infected in human MT4 cells assessed as protection against virus-induced cytopathic effect incubated for 5 days by MTT assay
Assay type: functional, organism-based
Conditions: Human immunodeficiency virus 1, MT4, 120 h

Q: With `COc1cc2cc(C#N)ccc2c(OC)c1Oc1cc(NC2CCCCC2)nc(Nc2ccc(C#N)cc2)n1` as the molecule, how does the EC50 read?
A: 0.57 µM

Q: With `COc1cc2cc(C#N)ccc2c(OC)c1Oc1cc(NC2CC2)nc(Nc2ccc(C#N)cc2)n1` as the molecule, how does the EC50 read?
A: 0.061 µM
